The text below walks through data of patent US11298347B2, “Methods of diagnosing and treating Tourette syndrome” (THE CHILDREN'S HOSPITAL OF PHILADELPHIA, priority 2015, dated 2022).

The conditions of series [1]: prior human studies; cited from earlier work.
Series [2] relates to group I and group II/III mGluRs. The note with it: in vitro studies (Hirouchi 2000); cited from earlier work.
The subject of series [3] is adenylate cyclase activity. The settings on record: Oka 1997; cited from earlier work.
For series [4] the following is noted: cited from earlier work.
The nature of series [5]: open-label Phase Ib clinical trial of NFC-1 in adolescent ADHD subjects with a genetic alteration in an mGluR network gene. The class given is in vivo, human. As for the experimental part:
An open-label Phase Ib clinical trial was conducted to investigate the safety, pharmacokinetics and efficacy of NFC-1 (fasoracetam monohydrate) in adolescent subjects between the ages of 12 and 17 previously diagnosed with ADHD who also had at least one genetic alteration in an mGluR network gene.
The study included 30 ADHD subjects who were between ages 12 and 17, of any ancestry or race, of weight within the 5th to 95th percentile for their age, and otherwise judged to be in good medical health. […] Seventeen of the 30 subjects have a CNV in a tier 1 mGluR network gene, while 7 subjects have a CNV in a tier 2 gene and 6 in a tier 3 gene.
Exclusion criteria comprised subjects suffering from a clinically significant illness, either mental or physical, that, in the investigator's opinion, might confound the results of the study or that might prevent them from completing the study, subjects that are pregnant or nursing, subjects that test positive for illicit drugs of that have a history of drug abuse, subjects that consume alcoholic beverages, or subjects for which the investigator is otherwise concerned regarding their compliance or suitability.
NFC-1 capsules of either 50 mg or 200 mg comprising fasoracetam monohydrate as active ingredient and placebo capsules comprising microcellulose were used for the study. The design of the trial was a phone screening (1 day), enrollment phase (1 to 2 days), a wash-out phase for subjects currently on ADHD medications (1-14 days), pharmacokinetic (PK) assessment (2 days), followed by a dose-escalation phase (35 days) and a follow-up phone visit approximately four weeks after the last dose, for a maximum of 127 days. All ADHD medications were discontinued during the wash-out phase prior to the study. The wash-out period for stimulants was 2-3 days and that for atomoxetine or noradrenergic agonists was 10-12 days. No new ADHD medications were started during the study.
A dose-escalation phase of the trial ran over a 5-week period, after the initial wash-out period and the PK and initial safety assessments. During week 1, all subjects were administered placebo capsules twice daily. After one week of placebo treatment, patients were started on 50 mg bid NFC-1 for 1 week. If safety and responsiveness data from prior dose level of fasoracetam indicated it was appropriate, subjects were then escalated to the next higher dose (100, 200, or 400 mg).
Of the 30 trial subjects, 3 received a maximum dose of 100 mg, 9 received a maximum dose of 200 mg, and the remaining 18 received a maximum dose of 400 mg.

The half-life is the time in which the quantity being followed falls by half. Regarding `O=C1CC[C@H](C(=O)N2CCCCC2)N1` [Fasoracetam, fasoracetam], in series [1], the half-life is 5 to 6.5 h. The “stimulation of mGluRs” value in series [2] is “can stimulate both group I and group II/III mGluRs”. Also, in series [3], the “adenylate cyclase activity by stimulating group II and III mGluRs” value is given as “may also inhibit adenylate cyclase activity”; the “adenylate cyclase activity through activation of group I mGluRs” value was “may stimulate adenylate cyclase activity”.
Regarding `O=C1CC[C@H](C(=O)N2CCCCC2)N1` [NFC-1, fasoracetam monohydrate], the safety and tolerability result in series [4] (Phase I-III clinical trials) was “generally safe and well tolerated”. Also, the “effects on psychiatric symptoms” value in series [4] (Phase III data, cerebral infarct patients and adult dementia patients with cerebrovascular diseases) is given as “beneficial effects”. The efficacy in dementia entry in series [4] (Phase III trials, dementia-related cognitive impairment) is on record as “did not show sufficient efficacy”. The “OCD symptoms during therapy” value in series [5] (all eight subjects with symptoms of OCD) is “improved”. Moreover, the dermatillomania symptoms entry in series [5] (one subject with OCD and history of ear scratching) was “reduced”. Further, the “bleeding ulcer from ear scratching” value in series [5] (one subject with OCD and history of ear scratching (dermatillomania)) is “healed”. Moreover, in series [5] (two individuals with history of recurrent tics, 50-400 mg bid dose escalation), the tics during therapy result is “did not demonstrate tics”.
